Data: PubChem BioAssay AID2060498 (Molecular Pharmacology Branch, DTP, NCI, 2025)

System: 171881-019-R-J1-PDC tumor spheroids, viability
Assay: Anticancer human tumor 171881-019-R-J1-PDC patient-derived invasive breast carcinoma cell line growth inhibition [GQUAD]
Conditions: spheroids with HUVEC and MSC; for IC50: curve of first compound; for viability, T/C: stronger effect = lower value
How it was run: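 Tumor cells were grown as complex spheroids with HUVEC endothelial cells and mesenchymal stem cells as stroma. G-quadruplex stabilizers were combined with targeted agents over half-log dilutions from near the clinical Cmax, or from 10 microM.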

[1] = second compound 0.0316 µM, first compound 0.0316 µM
[2] = second compound 0.0316 µM, first compound 0.1 µM
[3] = second compound 0.0316 µM, first compound 0.316 µM
[4] = second compound 0.0316 µM, first compound 1 µM
[5] = second compound 0.0316 µM, first compound 3.16 µM
[6] = second compound 0.0316 µM, first compound 10 µM
[7] = second compound 0.1 µM, first compound 0.0316 µM
[8] = second compound 0.1 µM, first compound 0.1 µM
[9] = second compound 0.1 µM, first compound 0.316 µM
[10] = second compound 0.1 µM, first compound 1 µM
[11] = second compound 0.1 µM, first compound 3.16 µM
[12] = second compound 0.1 µM, first compound 10 µM
[13] = second compound 0.316 µM, first compound 0.0316 µM
[14] = second compound 0.316 µM, first compound 0.1 µM
[15] = second compound 0.316 µM, first compound 0.316 µM
[16] = second compound 0.316 µM, first compound 1 µM
[17] = second compound 0.316 µM, first compound 3.16 µM
[18] = second compound 0.316 µM, first compound 10 µM
[19] = second compound 1 µM, first compound 0.0316 µM
[20] = second compound 1 µM, first compound 0.1 µM
[21] = second compound 1 µM, first compound 0.316 µM
[22] = second compound 1 µM, first compound 1 µM
[23] = second compound 1 µM, first compound 3.16 µM
[24] = second compound 1 µM, first compound 10 µM
[25] = second compound 3.16 µM, first compound 0.0316 µM
[26] = second compound 3.16 µM, first compound 0.1 µM
[27] = second compound 3.16 µM, first compound 0.316 µM
[28] = second compound 3.16 µM, first compound 1 µM
[29] = second compound 3.16 µM, first compound 3.16 µM
[30] = second compound 3.16 µM, first compound 10 µM
[31] = second compound 10 µM, first compound 0.0316 µM
[32] = second compound 10 µM, first compound 0.1 µM
[33] = second compound 10 µM, first compound 0.316 µM
[34] = second compound 10 µM, first compound 1 µM
[35] = second compound 10 µM, first compound 3.16 µM
[36] = second compound 10 µM, first compound 10 µM
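Further: spheroids exposed to compounds for 7 days.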
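Wherever viability, T/C is given: 100% = DMSO vehicle control viability.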

Compound `COc1ccc([C@@H](O)c2cc(-c3ncnc4cc(N5CCOCC5)ccc34)c(F)cc2Cl)nn1` + Cc1cnc(CNC(=O)c2c(=O)c3ccc(N4CCCN(C)CC4)nc3n3c2sc2ccccc23)cn1 has an IC50 (second compound 0.0316 µM) of 0.405 µM, an IC50 (second compound 0.1 µM) of 0.268 µM and an IC50 (second compound 0.316 µM) of 0.169 µM. For the same compound, the IC50 (second compound 1 µM) was 0.169 µM, the IC50 (second compound 3.16 µM) was 0.112 µM and the IC50 (second compound 10 µM) was 0.103 µM. It also gave a viability, T/C [1] of 93.2%, a viability, T/C [2] of 77.1% and a viability, T/C [3] of 60.5%. It also gave a viability, T/C [4] of 22.4%, a viability, T/C [5] of 9.13% and a viability, T/C [6] of 5.12%. For the same compound, the viability, T/C [7] was 75.6%, the viability, T/C [8] was 76% and the viability, T/C [9] was 43.7%. The viability, T/C [10] was 19.1%, the viability, T/C [11] was 8.81% and the viability, T/C [12] was 4.57%. It also gave a viability, T/C [13] of 73.1%, a viability, T/C [14] of 58% and a viability, T/C [15] of 40.5%. The viability, T/C [16] was 17%, the viability, T/C [17] was 9.34% and the viability, T/C [18] was 6.36%. For the same compound, the viability, T/C [19] was 64.9%, the viability, T/C [20] was 56.8% and the viability, T/C [21] was 41.8%. For the same compound, the viability, T/C [22] was 18%, the viability, T/C [23] was 10.8% and the viability, T/C [24] was 4.62%. For the same compound, the viability, T/C [25] was 60.7%, the viability, T/C [26] was 49.4% and the viability, T/C [27] was 39.4%. The viability, T/C [28] was 18.9%, the viability, T/C [29] was 11.2% and the viability, T/C [30] was 4.88%. For the same compound, the viability, T/C [31] was 53.8%, the viability, T/C [32] was 52.3% and the viability, T/C [33] was 37.8%. For the same compound, the viability, T/C [34] was 21.7%, the viability, T/C [35] was 11.8% and the viability, T/C [36] was 4.99%.

`CC(C)n1c(=O)n(C)c2cnc3cc(F)c(-c4ccc(OCCCN5CCCCC5)nc4)cc3c21` + CN(C)c1ccc(Nc2c3ccc(NC(=O)CCN4CCCC4)cc3nc3cc(NC(=O)CCN4CCCC4)ccc23)cc1 was tested, and the IC50 (second compound 0.0316 µM) was 2.41 µM, the IC50 (second compound 0.1 µM) was 2.21 µM and the IC50 (second compound 0.316 µM) was 0.67 µM. For the same compound, the IC50 (second compound 1 µM) was less than 0.0316 µM, the IC50 (second compound 3.16 µM) was less than 0.0316 µM and the IC50 (second compound 10 µM) was less than 0.0316 µM. For the same compound, the viability, T/C [1] was 95.7%, the viability, T/C [2] was 100% and the viability, T/C [3] was 88.1%. For the same compound, the viability, T/C [4] was 80.4%, the viability, T/C [5] was 40.4% and the viability, T/C [6] was 12.9%. The viability, T/C [7] was 93%, the viability, T/C [8] was 108% and the viability, T/C [9] was 92%. The viability, T/C [10] was 84.9%, the viability, T/C [11] was 34.3% and the viability, T/C [12] was 9.41%. It also gave a viability, T/C [13] of 82.2%, a viability, T/C [14] of 79.6% and a viability, T/C [15] of 69.3%. The viability, T/C [16] was 37.6%, the viability, T/C [17] was 20.3% and the viability, T/C [18] was 4.16%. It also gave a viability, T/C [19] of 18.5%, a viability, T/C [20] of 16.8% and a viability, T/C [21] of 19.4%. The viability, T/C [22] was 8.58%, the viability, T/C [23] was 6.36% and the viability, T/C [24] was 1.3%. For the same compound, the viability, T/C [25] was 1.45%, the viability, T/C [26] was 1.78% and the viability, T/C [27] was 1.74%. It also gave a viability, T/C [28] of 1.06%, a viability, T/C [29] of 1.03% and a viability, T/C [30] of 0.15%. For the same compound, the viability, T/C [31] was 0.27%, the viability, T/C [32] was 0.4% and the viability, T/C [33] was 0.34%. It also gave a viability, T/C [34] of 0.37%, a viability, T/C [35] of 0.25% and a viability, T/C [36] of 0.28%.
